Where “and” joins values, the source holds several entries; their conditions need not be identical. Equal values may be shown once. Read-outs that look alike come from different tables or passages of the source. No end group written: not given here.
How the values were obtained:
[1] = tested on: Candida glabrata ATCC15126; assay: Antimicrobial assays II, NCCLS broth microdilution MIC; format: cell-based; details: Table 8; in µg/mL
[2] = tested on: Pseudomonas aeruginosa 105663; format: cell-based; details: Table 9; in µg/mL
[3] = tested on: Pseudomonas aeruginosa H187; format: cell-based; details: in µg/mL
[4] = tested on: Pseudomonas aeruginosa 100609; format: cell-based; details: Table 9; in µg/mL
P. aeruginosa H374 [5] = format: cell-based, Pseudomonas aeruginosa; details: for MIC P. aeruginosa H374: Table 9, in µg/mL
P. aeruginosa H774 = format: cell-based, Pseudomonas aeruginosa; details: P. aeruginosa H744; nalidixic acid + peptide at ¼ MIC; 0.5 or less = synergy
Summary of the method: (§1)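 Efflux-mutant strains were tested with two-fold serial dilutions of chloramphenicol or nalidixic acid, alone and with peptide held at ¼ of its own MIC.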

P. aeruginosa H374 [6] = format: cell-based, Pseudomonas aeruginosa; details: for FIC Index: 0.5 or less = synergy
Summary of the method: as §1

P. aeruginosa = format: cell-based, Pseudomonas aeruginosa; details: P. aeruginosa H744; MIC of nalidixic acid with peptide at ¼ MIC
Summary of the method: as §1

S. aureus (MRSA) = format: cell-based, Staphylococcus aureus; details: mean of three; 16 to 20 hours at 35° C.
PC3 = assay: Anti-cancer assay, MTT, LD50; format: cell-based; details: 24 hours with peptide, prostate adenocarcinoma
Text: (§2) Numbers are LD50 values (μg/mL).

HeLaS3 = assay: Anti-cancer assay, MTT, LD50; format: cell-based; details: 24 hours with peptide, cervical carcinoma
Text: as §2

H1299 = assay: Anti-cancer assay, MTT, LD50; format: cell-based; details: 24 hours with peptide, lung large cell carcinoma
Text: as §2

MCF7 = assay: Anti-cancer assay, MTT, LD50; format: cell-based; details: MCF7 breast adenocarcinoma line, MTT, 24 hours with peptide
Text: as §2

SW480 = assay: Anti-cancer assay, MTT, LD50; format: cell-based; details: SW480 colon adenocarcinoma line, 24 hours with peptide
Text: as §2

BMKC = assay: Anti-cancer assay, MTT, LD50; format: cell-based; details: BMKC cloned melanoma line, 24 hours with peptide
Text: as §2

S. pneumoniae C719 = assay: Antimicrobial assays II, NCCLS broth microdilution MIC; format: cell-based, Streptococcus pneumoniae; details: mean of three, in µg/mL
S. pyogenes M76 = assay: as above; format: cell-based, Streptococcus pyogenes; details: mean of three; 16 to 20 hours at 35° C.
E. coli UB1005 = format: cell-based, Escherichia coli; details: mean of three; 16 to 20 hours at 35° C.; in µg/mL
S. pyogenes ATCC19615 = assay: Antimicrobial assays II, NCCLS broth microdilution MIC; format: cell-based, Streptococcus pyogenes; details: mean of three, in µg/mL
[7] = tested on: Pseudomonas aeruginosa ATCC 9027; assay: Antimicrobial assay I, MIC by OD measurement; format: cell-based; details: 37° C. for 24 hours, absorbance 620 nm
[8] = tested on: Staphylococcus aureus ATCC 6538; assay: Antimicrobial assay I, MIC by OD measurement; format: cell-based; details: 37° C. for 24 hours, absorbance 620 nm
in vitro [9] = details: human, WI38 normal lung fibroblast cells, LD50 WI38, WI38 normal lung fibroblast line, MTT, 24 hours with peptide
S. pneumoniae C718 = assay: Antimicrobial assays II, NCCLS broth microdilution MIC; format: cell-based, Streptococcus pneumoniae; details: mean of three
S. epidermidis C621 = format: cell-based, Staphylococcus epidermidis; details: mean of three; 16 to 20 hours at 35° C.
[10] = tested on: yeast (Saccharomyces cerevisiae); assay: Antimicrobial assay I, yeast assay in RPMI 1640; format: cell-based; details: RPMI 1640 media
in vitro [11] = format: cell-based, human; details: human, human red blood cells, pH 7, hemolytic assay, concentration at 50% hemolysis, 1 hour at 37° C.; read-out: LD50
WI38 = details: MTT, 24 hours with peptide; normal fibroblast line
S. typhimurium 14028S = format: cell-based, Salmonella typhimurium; details: mean of three; 16 to 20 hours at 35° C.; in µg/mL

FAKKLAKKLKKLAKKLAK-OH [P71 (47)]
MIC C. glabrata ATCC15126 [1]: 32
MIC P. aeruginosa Tb 105663 [2]: 16
MIC P. aeruginosa H187 ([3]; Table 8): 8
MIC P. aeruginosa H187 ([3]; Table 9): 8
MIC P. aeruginosa Tb 100609 [4]: 16
MIC P. aeruginosa H374 (P. aeruginosa H374 [5]): 4

FAKKLKKLAKLAKKL-NH2 [P46 (28)]
MIC C. glabrata ATCC15126 [1]: 32
MIC P. aeruginosa Tb 105663 [2]: 32
MIC P. aeruginosa H187 ([3]; Table 8): 8 and 16
MIC P. aeruginosa H187 ([3]; Table 9): 16
MIC P. aeruginosa Tb 100609 [4]: 16
MIC P. aeruginosa H374 (P. aeruginosa H374 [5]): 4

FALALKALKKALKKLKKALKKAL-NH2 [P2 (2)]
MIC P. aeruginosa Tb 105663 [2]: 16
MIC P. aeruginosa H187 ([3]; Table 9): 16
MIC P. aeruginosa Tb 100609 [4]: 32
MIC P. aeruginosa H374 (P. aeruginosa H374 [5]): 16

MPKWKVFKKIEKVGRNIRNGIVKAGPAIAVLGEAKALG-NH2 [P12 (5)]
MIC C. glabrata ATCC15126 [1]: 128
MIC P. aeruginosa Tb 105663 [2]: 8
MIC P. aeruginosa H187 ([3]; Table 8): 16
MIC P. aeruginosa H187 ([3]; Table 9): 16
MIC P. aeruginosa Tb 100609 [4]: 8
MIC P. aeruginosa H374 (P. aeruginosa H374 [5]): 8

FAKKLAKLAKKALAL-NH2 [P39 (21)]
MIC C. glabrata ATCC15126 [1]: 16
MIC P. aeruginosa Tb 105663 [2]: 32
MIC P. aeruginosa H187 ([3]; Table 8): 32
MIC P. aeruginosa H187 ([3]; Table 9): 32
MIC P. aeruginosa Tb 100609 [4]: 32
MIC P. aeruginosa H374 (P. aeruginosa H374 [5]): 16

LPKWKVFKKIEKVGRNIRNGIVKAGPAIAVLGEAKALG-NH2 [P306 (150)]
MIC C. glabrata ATCC15126 [1]: >128
MIC P. aeruginosa Tb 105663 [2]: 32
MIC P. aeruginosa H187 ([3]; Table 8): 16
MIC P. aeruginosa H187 ([3]; Table 9): 16
MIC P. aeruginosa Tb 100609 [4]: 16
MIC P. aeruginosa H374 (P. aeruginosa H374 [5]): 8

FAKKLKKLAKLAKKL-NH2 [P46]
FIC Index (P. aeruginosa H774): 1.25
MIC Cm-comb. (P. aeruginosa H374 [6]; MIC of chloramphenicol with peptide at ¼ MIC): 8 µg/mL
MIC Nal-comb. (P. aeruginosa H374 [6]; MIC of nalidixic acid with peptide at ¼ MIC): 2500 µg/mL
FIC Index (P. aeruginosa H374 [6]; chloramphenicol + peptide at ¼ MIC): 0.75
FIC Index (P. aeruginosa H374 [6]; nalidixic acid + peptide at ¼ MIC, FIC=0.25+MIC comb/MIC alone): 0.75
MIC Nal-comb. (P. aeruginosa): 624 µg/mL
S. aureus (MRSA) MIC (S. aureus (MRSA)): 64 µg/mL
PC3 LD50 (PC3): 280 µg/mL
HeLaS3 LD50 (HeLaS3): 280 µg/mL
H1299 LD50 (H1299): 290 µg/mL
LD50 MCF7 (MCF7): 300 µg/mL
LD50 SW480 (SW480): 160 µg/mL
LD50 BMKC (BMKC): 150 µg/mL
S. pneumoniae MIC (S. pneumoniae C719): 128
S. pyogenes M76 MIC (S. pyogenes M76): 8 µg/mL
E. coli UB1005 MIC (E. coli UB1005): 8 and 4
S. pyogenes MIC (S. pyogenes ATCC19615): 16
paerug9027 (MIC) [7]: 5 µg/mL
staph6538 (MIC) [8]: 10 µg/mL
CC50 at 24 h (in vitro [9]): 200 µg/mL
S. pneumoniae MIC (S. pneumoniae C718): 64 µg/mL
S. epidermidis C621 MIC (S. epidermidis C621): 8 µg/mL
yeast (MIC or MFC) [10]: 50 µg/mL
HC50 at 1 h (in vitro [11]): 900 µg/mL
WI38 LD50 (WI38): 200 µg/mL
P. aeruginosa H374 MIC (P. aeruginosa H374 [5]; mean of three, 16 to 20 hours at 35° C.): 4 µg/mL
S. typhimurium 14028S MIC (S. typhimurium 14028S): 16 and 8

CC(C)C[C@H](NC(=O)[C@H](C)NC(=O)[C@H](CC(C)C)NC(=O)[C@H](C)NC(=O)[C@H](CC(C)C)NC(=O)[C@H](CCCCN)NC(=O)[C@H](C)NC(=O)[C@H](CC(C)C)NC(=O)[C@H](CCCCN)NC(=O)[C@H](CCCCN)NC(=O)[C@H](C)NC(=O)[C@H](CC(C)C)NC(=O)[C@H](CCCCN)NC(=O)[C@H](CCCCN)NC(=O)[C@H](CC(C)C)NC(=O)[C@H](CCCCN)NC(=O)[C@H](CCCCN)NC(=O)[C@H](C)NC(=O)[C@H](CC(C)C)NC(=O)[C@H](CCCCN)NC(=O)[C@H](CCCCN)NC(=O)[C@H](C)NC(=O)[C@@H](N)Cc1ccccc1)C(N)=O [P11 (4)]
MIC P. aeruginosa Tb 105663 [2]: 16
MIC P. aeruginosa H187 ([3]; Table 9): 16
MIC P. aeruginosa Tb 100609 [4]: 16
MIC P. aeruginosa H374 (P. aeruginosa H374 [5]): 16
